# What was measured:
# Format in all cases: in vivo
# [1] = test system: ABUTILON THEOPHRASTI, MEDIC.; experiment: Postemergence herbicidal evaluation, ABUTH (Velvetleaf)
# Method in brief: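 Velvetleaf (Abutilon theophrasti) seedlings were raised in jiffy flats for about two weeks and then sprayed postemergence. The test compound was dispersed in a 50/50 acetone/water mixture containing 0.5% TWEEN®20 and applied through a nozzle operating at 40 psi. Plants were kept on greenhouse benches and rated 0-9 four to five weeks after treatment.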
# [2] = test system: AMBROSIA ARTEMISIIFOLIA, L.; experiment: Postemergence herbicidal evaluation, AMBEL (Ragweed, Common);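 note: higher means more injury with 8 approaching complete kill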
# Method in brief: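 Common ragweed (Ambrosia artemisiifolia) seedlings were raised in jiffy flats for roughly two weeks, then sprayed postemergence through a nozzle at 40 psi with the test compound dispersed in 50/50 acetone/water carrying 0.5% TWEEN®20. The plants were kept on greenhouse benches under conventional care. Four to five weeks later, injury was rated visually on a 0-9 scale, and repeat tests were averaged.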
# [3] = test system: CHENOPODIUM ALBUM, L.; experiment: Postemergence herbicidal evaluation, CHEAL (Lambsquarters, Common)
# Method in brief: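 Seedlings of common lambsquarters (Chenopodium album) were raised in jiffy flats for roughly two weeks, then sprayed postemergence through a nozzle at 40 psi with test compound dispersed in 50/50 acetone/water containing 0.5% TWEEN®20 surfactant. Plants were kept on greenhouse benches under standard care and rated visually on a 0-9 scale versus controls.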
# [4] = test system: IPOMOEA SPP.; experiment: Postemergence herbicidal evaluation, IPOSS (Morningglory spp.)
# Method in brief: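 Seedlings of morningglory (Ipomoea spp.) were raised in jiffy flats for roughly two weeks. They were then sprayed postemergence through a nozzle at 40 psi with test compound dispersed in 50/50 acetone/water containing 0.5% TWEEN®20 surfactant. Plants were kept on greenhouse benches under standard care and visually rated 0-9 against controls four to five weeks after treatment.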
# [5] = test system: GALIUM APARINE; experiment: Postemergence herbicidal evaluation, GALAP (Galium); set-up: key to GALAP rating / Herbicidal effect rating, GALAP / GALAP: 0-9 visual rating scale vs untreated control;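 note: higher means more injury with 8 approaching complete kill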
# Method in brief: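 Galium (GALAP) seedlings were raised in jiffy flats for about two weeks, then sprayed with test compounds dispersed in 50/50 acetone/water containing 0.5% TWEEN®20, delivered through a nozzle at 40 psi. Plants were kept on greenhouse benches and visually rated 0-9 against a control four to five weeks later; repeat tests were averaged.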
# [6] = test system: ECHINOCHLOA CRUS-GALLI, (L) BEAU; experiment: Postemergence herbicidal evaluation, ECHCG (Barnyardgrass); set-up: key to ECHCG rating / Herbicidal effect rating, ECHCG / ECHCG: 0-9 visual rating scale vs untreated control
# Method in brief: (§1)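 Under usual greenhouse care after spraying, plants were examined four to five weeks on and given a 0–9 score relative to control. Application rate was about 0.125–0.500 kg/ha on ~two-week-old seedlings.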
# [7] = test system: SETARIA VIRIDIS, (L) BEAU; experiment: Postemergence herbicidal evaluation, SETVI (Foxtail, Green); set-up: key to SETVI rating / Herbicidal effect rating, SETVI / SETVI: 0-9 visual rating scale vs untreated control
# Method in brief: as §1
# [8] = test system: TRITICUM AESTIVUM, CV. APOLLO; experiment: Postemergence herbicidal evaluation, TRZAWO (Wheat, Winter, CV. APOLLO);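 note: higher means more injury with 8 approaching complete kill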
# Method in brief: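 Wheat seedlings, raised in jiffy flats for roughly two weeks, were sprayed postemergence with test compound dispersed in a 50/50 acetone/water mixture containing 0.5% TWEEN®20 surfactant, delivered through a nozzle at 40 psi. Plants were then kept on greenhouse benches under conventional care. Four to five weeks after treatment they were rated visually on a 0-9 scale against an untreated control, and ratings from repeated tests were averaged.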
# [9] = test system: ZEA MAYS L.; experiment: Postemergence herbicidal evaluation, ZEAMX (Corn, Field);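 note: higher means more injury with 8 approaching complete kill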
# Method in brief: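 Corn seedlings were raised in jiffy flats for roughly two weeks, then sprayed postemergence with the test material dispersed in 50/50 acetone/water containing 0.5% TWEEN®20 surfactant, using a nozzle at 40 psi. Plants were kept on greenhouse benches under standard care and visually rated on a 0-9 scale four to five weeks after treatment.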
# [10] = test system: CHENOPODIUM ALBUM, L.; experiment: Preemergence herbicidal evaluation, CHEAL (Lambsquarters, Common); conditions: for CHEAL herbicidal rating: rated four to five weeks after treatment
# Method in brief: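 Seeds mixed with potting soil were planted on about one inch of soil in cups, then sprayed with aqueous acetone solution of test compound at about 0.125 to 0.50 kg per hectare. Plants grown under greenhouse conditions; visual rating on a 0-9 scale versus untreated control at 4-5 weeks.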
# [11] = test system: ORYZA SATIVA, L. TEBONNET; experiment: Rice tolerance to post-transplant applications under flooded paddy conditions, ORYSAT (Rice, Tebonnet); conditions: for Herbicidal effect rating, ORYSAT: post-transplant rice, 3-4 weeks after treatment; for ORYSAT: post-transplanted rice
# Method in brief: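 Two ten-day-old Tebonnet rice seedlings transplanted into silt loam, flooded 1.5–3 cm; three days later the water surface treated with compounds in acetone/water at about 0.5, 0.25, 0.125 and 0.063 kg/ha. Visual 0–9 injury rating versus control after 3–4 weeks in greenhouse.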
smiles,measurement,setting,value
"COC(=O)Cn1c(=O)n(C)c(=O)n(-c2cc(Oc3ccc(C(F)(F)F)cc3Cl)ccc2Cl)c1=O [Compound 39, Methyl 3-{[2-chloro-5-(2-chloro-α,α,α-trifluoro-p-tolyl)oxy]phenyl}tetrahydro-5-methyl-2,4,6-trioxo-s-triazine-1(2H)-acetate]",ABUTH,[1]; Rate 0.016 kg/ha,7.0
same,ABUTH,[1]; Rate 0.032 kg/ha,8.5
same,ABUTH,[1]; Rate 0.063 kg/ha,9.0
same,ABUTH,[1]; Rate 0.125 kg/ha,9.0
same,ABUTH rating,[1]; Rate 0.125 kg/ha,9.0
same,ABUTH,[1]; Rate 0.250 kg/ha,9.0
same,ABUTH rating,[1]; Rate 0.250 kg/ha,9.0
same,ABUTH,[1]; Rate 0.500 kg/ha,9.0
same,ABUTH rating,[1]; Rate 0.500 kg/ha,9.0
same,AMBEL,[2]; Rate 0.016 kg/ha,4.5
same,AMBEL,[2]; Rate 0.032 kg/ha,6.5
same,AMBEL,[2]; Rate 0.063 kg/ha,7.5
same,AMBEL,[2]; Rate 0.125 kg/ha,8.5
same,AMBEL,[2]; Rate 0.250 kg/ha,9.0
same,AMBEL,[2]; Rate 0.500 kg/ha,9.0
same,CHEAL,[3]; Rate 0.016 kg/ha,6.0
same,CHEAL,[3]; Rate 0.032 kg/ha,8.0
same,CHEAL,[3]; Rate 0.063 kg/ha,9.0
same,CHEAL,[3]; Rate 0.125 kg/ha,9.0
same,CHEAL rating,[3]; Rate 0.125 kg/ha,9.0
same,CHEAL,[3]; Rate 0.250 kg/ha,9.0
same,CHEAL rating,[3]; Rate 0.250 kg/ha,9.0
same,CHEAL,[3]; Rate 0.500 kg/ha,9.0
same,CHEAL rating,[3]; Rate 0.500 kg/ha,9.0
same,IPOSS,[4]; Rate 0.016 kg/ha,5.5
same,IPOSS,[4]; Rate 0.032 kg/ha,7.0
same,IPOSS,[4]; Rate 0.063 kg/ha,9.0
same,IPOSS,[4]; Rate 0.125 kg/ha,9.0
same,IPOSS rating,[4]; Rate 0.125 kg/ha,9.0
same,IPOSS,[4]; Rate 0.250 kg/ha,9.0
same,IPOSS rating,[4]; Rate 0.250 kg/ha,9.0
same,IPOSS,[4]; Rate 0.500 kg/ha,9.0
same,IPOSS rating,[4]; Rate 0.500 kg/ha,9.0
same,GALAP,[5]; Rate 0.016 kg/ha,7.5
same,GALAP,[5]; Rate 0.032 kg/ha,8.5
same,GALAP,[5]; Rate 0.063 kg/ha,7.0
same,GALAP,[5]; Rate 0.125 kg/ha,8.0
same,GALAP,[5]; Rate 0.250 kg/ha,9.0
same,GALAP,[5]; Rate 0.500 kg/ha,9.0
same,ECHCG,[6]; Rate 0.016 kg/ha,1.5
same,ECHCG,[6]; Rate 0.032 kg/ha,3.0
same,ECHCG,[6]; Rate 0.063 kg/ha,1.0
same,ECHCG,[6]; Rate 0.125 kg/ha,4.5
same,ECHCG,[6]; Rate 0.250 kg/ha,7.5
same,ECHCG,[6]; Rate 0.500 kg/ha,8.0
same,SETVI,[7]; Rate 0.016 kg/ha,2.5
same,SETVI,[7]; Rate 0.032 kg/ha,4.5
same,SETVI,[7]; Rate 0.063 kg/ha,3.5
same,SETVI,[7]; Rate 0.125 kg/ha,4.5
same,SETVI,[7]; Rate 0.250 kg/ha,8.0
same,SETVI,[7]; Rate 0.500 kg/ha,9.0
same,TRZAWO,[8]; Rate 0.016 kg/ha,2.8
same,TRZAWO,[8]; Rate 0.032 kg/ha,3.8
same,TRZAWO,[8]; Rate 0.063 kg/ha,4.5
same,TRZAWO,[8]; Rate 0.125 kg/ha,4.8
same,TRZAWO,[8]; Rate 0.250 kg/ha,6.0
same,TRZAWO,[8]; Rate 0.500 kg/ha,5.5
same,ZEAMX,[9]; Rate 0.016 kg/ha,3.3
same,ZEAMX,[9]; Rate 0.032 kg/ha,4.3
same,ZEAMX,[9]; Rate 0.063 kg/ha,4.8
same,ZEAMX,[9]; Rate 0.125 kg/ha,6.5
same,ZEAMX,[9]; Rate 0.250 kg/ha,8.0
same,ZEAMX,[9]; Rate 0.500 kg/ha,8.5
same,CHEAL,[10]; Rate 0.063 kg/ha,9.0
same,CHEAL,[10]; Rate 0.125 kg/ha,9.0
same,CHEAL herbicidal rating,[10]; Rate 0.125 kg/ha,9.0
same,CHEAL,[10]; Rate 0.250 kg/ha,9.0
same,CHEAL herbicidal rating,[10]; Rate 0.250 kg/ha,9.0
same,CHEAL,[10]; Rate 0.500 kg/ha,9.0
same,CHEAL herbicidal rating,[10]; Rate 0.500 kg/ha,9.0
same,"Herbicidal effect rating, ORYSAT",[11]; 0.063 kg/ha,2.5
same,"Herbicidal effect rating, ORYSAT",[11]; 0.125 kg/ha,3.5
same,"Herbicidal effect rating, ORYSAT",[11]; 0.250 kg/ha,5.0
same,"Herbicidal effect rating, ORYSAT",[11]; 0.500 kg/ha,5.3
same,ORYSAT,[11]; Rate 0.031 kg/ha,1.8
same,ORYSAT,[11]; Rate 0.063 kg/ha,2.5
same,ORYSAT,[11]; Rate 0.125 kg/ha,3.5
same,ORYSAT,[11]; Rate 0.250 kg/ha,5.0
"Cn1c(=O)[nH]c(=O)n(-c2cc(Oc3c(F)cc(C(F)(F)F)cc3Cl)ccc2[N+](=O)[O-])c1=O [D, reference compound]",ABUTH,[1]; Rate 0.008 kg/ha,0.0
same,ABUTH,[1]; Rate 0.016 kg/ha,8.3
same,ABUTH,[1]; Rate 0.031 kg/ha,8.7
same,ABUTH,[1]; Rate 0.063 kg/ha,9.0
same,ABUTH,[1]; Rate 0.125 kg/ha,9.0
same,AMBEL,[2]; Rate 0.008 kg/ha,5.0
same,AMBEL,[2]; Rate 0.016 kg/ha,7.3
same,AMBEL,[2]; Rate 0.031 kg/ha,8.0
same,AMBEL,[2]; Rate 0.063 kg/ha,8.0
same,AMBEL,[2]; Rate 0.125 kg/ha,8.5
same,CHEAL,[3]; Rate 0.008 kg/ha,7.0
same,CHEAL,[3]; Rate 0.016 kg/ha,7.3
same,CHEAL,[3]; Rate 0.031 kg/ha,6.3
same,CHEAL,[3]; Rate 0.063 kg/ha,7.0
same,CHEAL,[3]; Rate 0.125 kg/ha,9.0
same,IPOSS,[4]; Rate 0.016 kg/ha,7.3
same,IPOSS,[4]; Rate 0.031 kg/ha,7.7
same,IPOSS,[4]; Rate 0.063 kg/ha,7.3
same,IPOSS,[4]; Rate 0.125 kg/ha,9.0
same,GALAP,[5]; Rate 0.008 kg/ha,4.0
same,GALAP,[5]; Rate 0.016 kg/ha,8.0
same,GALAP,[5]; Rate 0.031 kg/ha,9.0
same,GALAP,[5]; Rate 0.063 kg/ha,8.5
same,GALAP,[5]; Rate 0.125 kg/ha,9.0
same,ECHCG,[6]; Rate 0.016 kg/ha,3.0
same,ECHCG,[6]; Rate 0.031 kg/ha,1.5
same,ECHCG,[6]; Rate 0.063 kg/ha,2.0
same,ECHCG,[6]; Rate 0.125 kg/ha,2.5
same,SETVI,[7]; Rate 0.008 kg/ha,0.0
same,SETVI,[7]; Rate 0.016 kg/ha,1.0
same,SETVI,[7]; Rate 0.031 kg/ha,1.3
same,SETVI,[7]; Rate 0.063 kg/ha,1.3
same,SETVI,[7]; Rate 0.125 kg/ha,1.5
same,TRZAWO,[8]; Rate 0.016 kg/ha,3.5
same,TRZAWO,[8]; Rate 0.031 kg/ha,4.5
same,TRZAWO,[8]; Rate 0.063 kg/ha,5.3
same,TRZAWO,[8]; Rate 0.125 kg/ha,5.3
same,ZEAMX,[9]; Rate 0.008 kg/ha,1.0
same,ZEAMX,[9]; Rate 0.016 kg/ha,3.3
same,ZEAMX,[9]; Rate 0.031 kg/ha,3.3
same,ZEAMX,[9]; Rate 0.063 kg/ha,4.2
same,ZEAMX,[9]; Rate 0.125 kg/ha,5.5
same,CHEAL,[10]; Rate 0.031 kg/ha,9.0
same,CHEAL,[10]; Rate 0.063 kg/ha,9.0
same,CHEAL,[10]; Rate 0.125 kg/ha,9.0
same,CHEAL,[10]; Rate 0.250 kg/ha,9.0
same,ORYSAT,[11]; Rate 0.031 kg/ha,3.0
same,ORYSAT,[11]; Rate 0.063 kg/ha,3.0
same,ORYSAT,[11]; Rate 0.125 kg/ha,3.0
same,ORYSAT,[11]; Rate 0.250 kg/ha,6.0
